According to patent publication US9572785B2, “DP2 antagonist and uses thereof” (Brickell Biotech, Inc., priority 2009, dated 2017):
Read-outs that look alike come from different tables or passages of the source.

Tests used:
[1] = Compound 1 2 mg/kg intravenous, semi-quantitative
Protocol: Rats with surgically placed bile duct and jugular vein cannula were purchased from Charles River Laboratories and allowed to acclimate for 2 days. […] Bile was collected at time-points 0-2, 2-5, 5-8, and 8-24 hrs post-dose in 8 mL scintillation vials and stored at −40° C. until LC-MS/MS analysis.
Analyses were performed using a Waters YMC ODS-AQ column (2.1×150 mm; 3 μm) linked to a Shimadzu LC-10AD VP with SCL-10A VP system controller. Tandem mass spectrometric (MS/MS) detection was carried out on a Sciex ABI3200 QTrap in the positive ion mode (ESI) by multiple reaction monitoring, precursor ion scan, and enhanced product ion scan. The mobile phases contained 10 mM ammonium acetate in water with 0.05% formic acid (solvent A) and 10 mM ammonium acetate in 50% acetonitrile/50% methanol with 0.05% formic acid (solvent B). […] Analytes were separated using a linear gradient as follows:
Analytes were separated using a linear gradient as follows:

[2] = target: Cytochrome P450 Enzyme 2C9 (Homo sapiens, UniProt P11712); experiment: Extracellular cytochrome P450 inhibition, CYP2C9; format: in vitro ADME; details: diclofenac 4′-hydroxylation, microsomes
Protocol: (§1) In general, microsomes at protein concentrations as defined in Table 12 were mixed with buffer (100 mM KH2PO4, pH 7.4), MgCl2 (6 mM)) and substrate, and were kept on ice. Aliquots of this mixture (89 μL) were delivered to each well of a 96-well polypropylene plate which contained an aliquot of inhibitor (1 μL) in acetonitrile:water (1:1). Final solvent concentrations were less than 1% (v/v). Incubations were initiated with the addition of 10 μL β-NADPH (10 mM stock) to a final volume of 100 μL. […] Samples were centrifuged at 4° C., and supernatant was transferred for LC-MS/MS analysis.

[3] = target: T1, Cytochrome P450 Enzyme 1A2 (Homo sapiens, UniProt P05177)
T1 sequence (P05177 1-516): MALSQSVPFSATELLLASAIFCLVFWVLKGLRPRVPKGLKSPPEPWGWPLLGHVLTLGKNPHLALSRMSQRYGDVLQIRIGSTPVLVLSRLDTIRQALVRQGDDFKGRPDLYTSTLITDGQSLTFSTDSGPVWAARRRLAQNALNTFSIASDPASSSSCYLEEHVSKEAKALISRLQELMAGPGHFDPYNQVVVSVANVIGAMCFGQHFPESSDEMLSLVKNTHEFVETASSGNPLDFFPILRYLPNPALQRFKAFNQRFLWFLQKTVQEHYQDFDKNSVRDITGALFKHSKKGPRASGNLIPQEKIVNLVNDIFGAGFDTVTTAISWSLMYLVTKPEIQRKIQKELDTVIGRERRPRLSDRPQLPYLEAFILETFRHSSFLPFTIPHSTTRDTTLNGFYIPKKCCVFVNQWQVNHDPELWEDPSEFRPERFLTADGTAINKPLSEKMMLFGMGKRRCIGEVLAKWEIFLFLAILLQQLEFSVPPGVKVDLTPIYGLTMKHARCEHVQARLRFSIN
Protocol: as §1

[4] = target: Cytochrome P450 Enzyme 3A4 (Homo sapiens, UniProt P08684); details: microsomes
Sequence of Cytochrome P450 Enzyme 3A4 (P08684 whole entry): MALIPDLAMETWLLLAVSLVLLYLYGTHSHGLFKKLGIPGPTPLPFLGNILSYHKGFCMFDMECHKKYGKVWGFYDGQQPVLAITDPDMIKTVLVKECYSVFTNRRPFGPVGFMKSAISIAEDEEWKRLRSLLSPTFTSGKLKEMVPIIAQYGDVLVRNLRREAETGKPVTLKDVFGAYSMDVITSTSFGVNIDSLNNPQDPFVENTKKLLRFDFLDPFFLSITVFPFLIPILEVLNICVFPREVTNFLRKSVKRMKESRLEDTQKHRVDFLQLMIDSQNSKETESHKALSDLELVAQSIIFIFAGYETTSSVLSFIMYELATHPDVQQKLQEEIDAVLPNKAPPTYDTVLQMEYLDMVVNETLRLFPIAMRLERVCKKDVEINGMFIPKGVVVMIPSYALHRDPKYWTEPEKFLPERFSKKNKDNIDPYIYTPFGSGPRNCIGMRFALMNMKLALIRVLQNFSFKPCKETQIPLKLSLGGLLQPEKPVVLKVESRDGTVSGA
Protocol: as §1

[5] = Properties of the amorphous phase; format: physicochemical; details: from 0% to 90% relative humidity
[6] = in vivo; details: Hartley, guinea pig, plasma, po
[7] = test system: guinea pig OVA model of allergen-induced asthma; experiment: Guinea pig allergic asthma model; format: in vivo; details: 3 mg/kg and 30 mg/kg b.i.d. PO, 24 hours after aerosolized OVA challenge
Protocol: Aerosolized OVA challenge to OVA-primed guinea pigs causes a significant influx of cells into the bronchoalveolar lavage fluid taken 24 hours after challenge. This increase is primarily from influx of eosinophils and neutrophils with a small proportion from macrophages.

[8] = target: Cytochrome P450 Enzyme 2D6 (Homo sapiens, UniProt P10635); experiment: Extracellular cytochrome P450 inhibition, CYP2D6; format: in vitro ADME; details: dextromethorphan O-demethylation, microsomes
Sequence of Cytochrome P450 Enzyme 2D6 (P10635 whole entry): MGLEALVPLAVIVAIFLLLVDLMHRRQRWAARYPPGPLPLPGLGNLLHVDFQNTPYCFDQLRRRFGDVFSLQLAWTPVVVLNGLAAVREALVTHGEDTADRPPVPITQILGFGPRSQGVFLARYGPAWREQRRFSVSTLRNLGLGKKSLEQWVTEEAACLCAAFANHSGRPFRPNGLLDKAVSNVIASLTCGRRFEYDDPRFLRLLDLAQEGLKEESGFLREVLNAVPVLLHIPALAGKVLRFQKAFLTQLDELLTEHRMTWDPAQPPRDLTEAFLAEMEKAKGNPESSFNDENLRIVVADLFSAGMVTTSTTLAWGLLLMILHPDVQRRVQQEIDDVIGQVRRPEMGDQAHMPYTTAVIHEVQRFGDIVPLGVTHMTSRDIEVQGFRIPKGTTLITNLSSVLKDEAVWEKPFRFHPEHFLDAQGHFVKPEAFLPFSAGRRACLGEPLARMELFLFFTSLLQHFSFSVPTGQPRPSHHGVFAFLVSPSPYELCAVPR
Protocol: as §1

[9] = test system: DK-PGD2-induced peripheral blood leukocyte influx; experiment: Guinea pig IV-DKPGD2-induced peripheral blood leukocyte influx; format: in vivo; details: for ED50: Cavia porcellus, Leukocyte, oral
Protocol: Methods were adapted from those detailed Shichijo et al., 2003, Journal of Pharmacology and Experimental Therapeutics, 307:518-525. Male Hartley guinea pigs were immunized with ovalbumin (OVA) on day 0 by intraperitoneal (IP) injection of 1 ml of a 100 μg/ml solution in Imject Alum. They were then used in the DK-PGD2 procedure between days 14 and 21. Subjects were randomly assigned to receive either vehicle (0.5% methyl cellulose, 4 ml/kg, oral (PO)) or one of three to four doses of test compound. Two hours or eighteen hours after dosing, animals were anesthetized with ketamine and challenged with DK-PGD2 (1 mg/kg, IV). Thirty minutes after IV administration, blood was collected via the marginal ear vein into EDTA tubes for cell analysis. 10 μl blood was lysed in 190 μl water followed by a further 20-fold dilution in PBS. A 10 μl fraction was mixed with equal parts trypan blue and loaded on a hemocytometer. Cells were visualized at a magnification of 40× using a LabPro light microscope and totals counted and recorded. Cells are expressed as total cells×10^8 per ml of blood. Inhibition of this effect by select compounds is determined statistically using Graphpad prism.

[10] = test system: mouse model of ovalbumin (OVA)-induced allergic rhinitis; experiment: Mouse allergic rhinitis model; format: in vivo; details: daily 10 mg/kg PO, OVA-primed and challenged mice
[11] = target: Cytochrome P450 Enzyme 2C19 (Homo sapiens, UniProt P33261); experiment: Extracellular cytochrome P450 inhibition, CYP2C19
Sequence of Cytochrome P450 Enzyme 2C19 (P33261 whole entry): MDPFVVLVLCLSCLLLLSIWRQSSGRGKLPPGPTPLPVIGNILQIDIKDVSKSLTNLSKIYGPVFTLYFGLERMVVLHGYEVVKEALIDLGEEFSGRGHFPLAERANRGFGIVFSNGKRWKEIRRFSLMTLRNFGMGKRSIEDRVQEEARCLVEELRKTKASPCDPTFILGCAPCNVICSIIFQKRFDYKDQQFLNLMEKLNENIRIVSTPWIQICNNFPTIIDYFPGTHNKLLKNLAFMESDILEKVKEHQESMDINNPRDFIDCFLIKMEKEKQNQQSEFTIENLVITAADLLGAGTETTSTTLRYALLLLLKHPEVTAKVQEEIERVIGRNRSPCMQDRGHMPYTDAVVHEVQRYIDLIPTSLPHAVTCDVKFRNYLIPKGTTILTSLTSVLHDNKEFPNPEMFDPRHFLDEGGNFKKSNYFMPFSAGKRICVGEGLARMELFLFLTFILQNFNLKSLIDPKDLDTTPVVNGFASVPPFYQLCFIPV
Protocol: as §1

[12] = Canine studies of formulations; format: in vivo; details: oral formulations
[13] = target: T2, DP2 receptor (Homo sapiens, UniProt Q9Y5Y4); experiment: Phase I study, ex vivo PGD2-induced blood eosinophil shape change (ESC); format: in vivo; parameters: endogenous in cells; host or cells: eosinophils in human whole blood; details: humans
T2 sequence (Q9Y5Y4 1-395): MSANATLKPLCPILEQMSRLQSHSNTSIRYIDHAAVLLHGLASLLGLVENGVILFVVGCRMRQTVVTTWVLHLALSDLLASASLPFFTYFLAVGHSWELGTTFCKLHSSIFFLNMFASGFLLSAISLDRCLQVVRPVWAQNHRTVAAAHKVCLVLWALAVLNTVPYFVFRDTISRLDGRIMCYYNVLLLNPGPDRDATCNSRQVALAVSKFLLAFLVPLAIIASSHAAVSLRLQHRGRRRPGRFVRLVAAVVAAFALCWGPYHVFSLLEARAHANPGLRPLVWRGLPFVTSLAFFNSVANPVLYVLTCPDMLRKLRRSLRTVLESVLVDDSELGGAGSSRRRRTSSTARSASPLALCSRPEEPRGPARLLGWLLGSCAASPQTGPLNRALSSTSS
Protocol: Blood is drawn from consenting human volunteers in EDTA vacutainer tubes and used within 1 hr of draw. […] The blood is vortexed and incubated at 37° C. for 5 minutes. 5 μl of 1 μM PGD2 in PBS is added for a final concentration of 50 nM and the tubes briefly vortexed. The reactions are incubated for exactly 5 minutes at 37° C. and then terminated by placing the tubes on ice and immediately adding 250 μl of ice-cold 1:4 diluted Cytofix (BD Biosciences). The reactions are transferred to 12×75 mM polystyrene round bottom tubes and the red blood cells lysed by the addition of 3 ml ammonium chloride lysing solution (150 mM NH4Cl, 10 mM KHCO3, 0.1 mM EDTA disodium salt) and incubation at room temperature for 15 minutes. […] The cells are resuspended in 0.2 ml of ice-cold 1:4 diluted Cytofix (BD Biosciences) and analyzed on a FACSCalibur (BD Biosciences) within 2 hours. […] The specific change in shape induced by PGD2 was calculated as the difference between the percentage of high forward scatter eosinophils in the presence and absence of PGD2.
At varying times after dosing blood is drawn for both pharmacokinetic analyses of drug concentration in blood, and also for PGD2 challenge and eosinophil shape change determination. The extent of receptor blockage is determined from the relationship between drug blood concentration and percentage inhibition of eosinophil shape change.

Sequence of Cytochrome P450 Enzyme 2C9 (P11712 whole entry): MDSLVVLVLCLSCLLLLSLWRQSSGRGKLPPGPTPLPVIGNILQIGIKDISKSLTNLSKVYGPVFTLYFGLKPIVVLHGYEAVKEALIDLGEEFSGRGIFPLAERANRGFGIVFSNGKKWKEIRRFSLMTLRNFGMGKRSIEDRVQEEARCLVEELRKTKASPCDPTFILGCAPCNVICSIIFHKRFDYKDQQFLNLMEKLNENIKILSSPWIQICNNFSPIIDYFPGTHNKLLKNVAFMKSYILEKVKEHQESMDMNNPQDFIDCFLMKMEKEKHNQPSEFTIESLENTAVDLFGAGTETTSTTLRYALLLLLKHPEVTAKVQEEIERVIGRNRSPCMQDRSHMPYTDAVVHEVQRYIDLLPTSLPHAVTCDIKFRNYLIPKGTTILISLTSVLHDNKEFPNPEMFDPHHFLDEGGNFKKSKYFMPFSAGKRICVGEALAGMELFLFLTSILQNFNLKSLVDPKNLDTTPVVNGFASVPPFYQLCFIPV

CCN(Cc1cc(C(F)(F)F)ccc1-c1cc(CC(=O)O[C@@H]2O[C@H](C(=O)O)[C@@H](O)[C@H](O)[C@H]2O)ccc1OC)C(=O)NCc1ccccc1 [Compound M2, acyl gluconuride of [2′-(3-benzyl-1-ethyl-ureidomethyl)-6-methoxy-4′-trifluoromethyl-biphenyl-3-yl]-acetic acid]
metabolite in rat bile, peak area relative to parent [1]: 273 % of parent

CCN(Cc1cc(C(F)(F)F)ccc1-c1cc(CC(=O)[O-])ccc1OC)C(=O)NCc1ccccc1.[Na+] [Compound 2, [2′-(3-benzyl-1-ethyl-ureidomethyl)-6-methoxy-4′-trifluoromethyl-biphenyl-3-yl]-acetic acid, sodium salt]
IC50 [2]: > 50 µM
IC50 [3]: > 50 µM
IC50 ([4]; IC50, midazolam 1-hydroxylation): 40 µM
IC50 ([4]; IC50, testosterone 6β-hydroxylation): > 50 µM
hygroscopicity, weight change [5]: 36%
concentration at 2.5 h ([6]; 0.1 mg/kg): 22 nM
concentration at 2.5 h ([6]; 1 mg/kg): 61 nM
concentration at 2.5 h ([6]; 10 mg/kg): 222 nM
concentration at 2.5 h ([6]; 30 mg/kg): 727 nM
cellular influx into bronchoalveolar lavage fluid [7]: dose-dependently reduced total cellular influx including eosinophils and neutrophils
IC50 [8]: > 50 µM
associated EC50 (plasma concentration) ([9]; 2 hr study): 0.055 µM
inhibition of DK-PGD2-induced peripheral blood leukocyte increase ([9]; 2 hr study, oral 0.1 mg/kg): 21%
inhibition of DK-PGD2-induced peripheral blood leukocyte increase ([9]; 2 hr study, oral 1 mg/kg): 59%
inhibition of DK-PGD2-induced peripheral blood leukocyte increase ([9]; 2 hr study, oral 10 mg/kg): 62%
inhibition of DK-PGD2-induced peripheral blood leukocyte increase ([9]; 2 hr study, oral 30 mg/kg): 80%
observed EC50 ([9]; 18 hr study): < 0.04 µM
inhibition of peripheral blood leukocyte numbers ([9]; 18 hr study, oral 1 mg/kg): 0%
inhibition of peripheral blood leukocyte numbers ([9]; 18 hr study, oral 10 mg/kg): 29%
inhibition of peripheral blood leukocyte numbers ([9]; 18 hr study, oral 30 mg/kg): 50%
inhibition of peripheral blood leukocyte numbers ([9]; 18 hr study, oral 100 mg/kg): 77%
ED50 ([9]; 2 hr study, read-out: ED50): 0.85 mg/kg
ED50 ([9]; 18 hr study, read-out: calculated ED50): 30 mg/kg
nasal rubs [10]: trend toward a decrease
sneezing behavior [10]: significantly reduced sneezing behavior
IC50 [11]: > 50 µM
absorption [12]: rapidly absorbed in the stomach and upper gastrointestinal tract
inhibition at 100 mg ([13]; at 24 hours, 100 mg dose): 75 to 90%
inhibition of the PGD2-induced eosinophil shape change (ESC) ([13]; at Cmax, doses equal to or greater than 30 mg): 80-100%

CCC1(c2ccccc2)C(=O)NC(=O)N(Cc2ccccc2)C1=O (single isomer, unassigned; (-)) [(-)-N-3-benzyl-phenobarbital, reference compound]
IC50 ([11]; mephenytoin 4′-hydroxylation, microsomes): 1.2 µM
